Source: patent US20140072617A1, “METHOD FOR PREVENTING OR SLOWING DOWN THE APPEARANCE OF THE EFFECTS OF SKIN AGEING USING A TOCOPHERYL PHOSPHATE IN LIPOSOMES” (LVMH RECHERCHE, priority 2007, published 2014)

Columns and labels:
[1] = system: normal human keratinocytes (NHKs); experiment: Apoptosis of normal human keratinocytes after H2O2 oxidative stress (JC-1/TOTO-3 cytometry); assay type: cell-based; settings: for % NHKs undergoing apoptosis: pretreated 24 h at 10 μg/ml, then 1 mM H2O2 for 3 h, nontreated H2O2 control 54.82, nontreated control 5.48
Protocol: The cells undergoing apoptosis (programmed cell death) are examined on normal human keratinocytes (NHKs) in culture.
The cells are pretreated or not pretreated (controls) for 24 h with the vitamin E derivatives in solution at 10 μg/ml.
The cells are subsequently subjected to oxidative stress (1 mM H2O2 for 3 h).
The proportion of cells undergoing apoptosis is determined by cytometry using the fluorescent probes JC-1 (measurement of mitochondrial transmembrane potential) and TOTO-3 (measurement of plasma membrane permeability).
The apoptotic cells are JC-1-negative (corresponding to a drop in the mitochondrial transmembrane potential) and TOTO-3-negative (corresponding to an absence of alteration of the plasma membrane).
This method has been published (Zullani et al. Cytometry part A, 2003, 54A: 100-108).

epidermal stem cells = experiment: Clonogenicity test on keratinocyte colonies derived from epidermal stem cells after oxidative stress; assay type: cell-based, human; settings: 1 μg/ml for 24 h, then hydrogen peroxide 15 minutes, 7 days of culture; versus stressed controls without treatment
Description: In order to study these epidermal stem cells in the basal cell layer of the epidermis, the test carried out, known as clonogenecity test, is based on the ability that the stem cells have of adhering, in vitro, to a culture support and of dividing so as to generate a large population of daughter cells grouped together in the form of colonies (Barrandon Y., Green H., Three clonal types of keratinocyte with different capacities for multiplication, […], 2302-2306 (1987), and Barrandon Y., Biologie des cellules souches épidermiques [Epidermal Stem Cell Biology], Ann. Dermatol. Venereol. Suppl. 2: 285-286, (1998)).
Analysis of the number and of the size of the colonies after culture makes it possible to characterize the epidermal stem cells.
The first step of isolating these cells consists in preparing a suspension of epidermal cells (Germain L et al., Improvement of human keratinocyte isolation and culture using thermolysin, Burns 19, 99-104 (1993)).
These cells are subsequently seeded onto feeder cells (3T3 fibroblasts), the mitotic activity of which is blocked with mitomycin. […]
After 7 days of culture, the cell colonies formed from each initial keratinocyte are coloured and counted by image analysis according to their size so as to evaluate the amount of stem cells of the initial culture. […]

Compound | % NHKs undergoing apoptosis [1] | number of large colonies (>4 mm^2) compared with the controls (epidermal stem cells) | protective effect against oxidative stress for the keratinocytes (in words) ([1]; 10 μg/ml 24 h, 1 mM H2O2 3 h, compared with control, vitamin E and the other derivatives)
Cc1c(C)c2c(c(C)c1O)CC[C@@](C)(CCC[C@H](C)CCC[C@H](C)CCCC(C)C)O2 [alpha-tocopherol] | 58.82% |  | 
Cc1c(C)c2c(c(C)c1OP(=O)([O-])[O-])CCC(C)(CCCC(C)CCCC(C)CCCC(C)C)O2.[Na+].[Na+] (stereo not drawn) [sodium alpha-tocopheryl phosphate] |  | +104% | 
Cc1c(C)c2c(c(C)c1OC(=O)c1cc(O)ccc1O)CCC(C)(CCCC(C)CCCC(C)CCCC(C)C)O2 (stereo not drawn) [tocopheryl gentisate] | 60.67% |  | 
alpha-tocopheryl phosphate | 32.79% |  | significantly greater than that observed for the control, and also than that observed for vitamin E or the other derivatives
tocotrienol | 42.85% |  | 
